Experimental data reported in ChEMBL document CHEMBL4382202, “1-(2-Hydroxybenzoyl)-thiosemicarbazides are promising antimicrobial agents targeting d-alanine-d-alanine ligase in bacterio” (Eur J Med Chem, 2018).
In brackets after ≈: the same amount, converted by molar mass.

Tests used:
Staphylococcus aureus [1] = assay: Antibacterial activity against Staphylococcus aureus ATCC 25923 after 18 to 24 hrs by microdilution assay; type: functional
Enterococcus faecalis [2] = assay: Antibacterial activity against Enterococcus faecalis ATCC 29212 after 18 to 24 hrs by microdilution assay; type: functional
[3] = target: T1, D-alanine--D-alanine ligase (Enterococcus faecalis (strain ATCC 700802 / V583), UniProt Q47758); assay: Inhibition of Enterococcus faecalis JH2-2 C-terminal 6His-tagged DdlB expressed in Escherichia coli LMG194 preincubated for 30 mins followed by substrate addition and measured after 20 mins by Biomol Green reagent assay
T1 sequence (Q47758 whole entry): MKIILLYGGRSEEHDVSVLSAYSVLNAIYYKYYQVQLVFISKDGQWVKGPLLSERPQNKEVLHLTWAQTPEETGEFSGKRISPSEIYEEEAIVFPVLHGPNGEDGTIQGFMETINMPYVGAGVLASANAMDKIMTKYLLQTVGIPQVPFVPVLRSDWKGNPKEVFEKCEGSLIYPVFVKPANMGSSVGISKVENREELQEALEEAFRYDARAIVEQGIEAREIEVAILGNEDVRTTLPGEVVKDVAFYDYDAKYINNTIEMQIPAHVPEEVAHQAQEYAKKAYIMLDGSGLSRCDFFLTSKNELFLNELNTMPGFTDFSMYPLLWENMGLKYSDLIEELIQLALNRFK

Enterococcus faecalis [4] = assay: Antibacterial activity against vancomycin-resistant Enterococcus faecalis BM 4390 after 18 to 24 hrs by microdilution assay; type: functional
Enterococcus faecalis [5] = assay: Antibacterial activity against vancomycin-resistant Enterococcus faecalis JH2-2::C1 after 18 to 24 hrs by microdilution assay; type: functional
Enterococcus faecalis [6] = assay: Antibacterial activity against vancomycin-resistant Enterococcus faecalis BM 4575 clinical isolate after 18 to 24 hrs by microdilution assay; type: functional
Staphylococcus aureus [7] = assay: Antibacterial activity against methicillin and vancomycin intermediate resistant Staphylococcus aureus MU50 after 18 to 24 hrs by microdilution assay; type: functional
Staphylococcus aureus [8] = assay: Antibacterial activity against methicillin and linezolid resistant Staphylococcus aureus NRS 119 clinical isolate after 18 to 24 hrs by microdilution assay; type: functional
Staphylococcus aureus [9] = assay: Antibacterial activity against community-acquired methicillin and erythromycin resistant Staphylococcus aureus SA 325 after 18 to 24 hrs by microdilution assay; type: functional
Staphylococcus aureus [10] = assay: Antibacterial activity against hospital-acquired methicillin/ciprofloxacin/moxifloxacin resistant Staphylococcus aureus SA 481 after 18 to 24 hrs by microdilution assay; type: functional
Staphylococcus aureus [11] = assay: Antibacterial activity against hospital-acquired methicillin and vacomycin resistant Staphylococcus aureus VRS-1 after 18 to 24 hrs by microdilution assay; type: functional

| SMILES | MIC (Staphylococcus aureus [1]) [µM] | MIC (Enterococcus faecalis [2]) [µM] | IC50 [3] [nM] | MIC (Enterococcus faecalis [4]) [µM] | MIC (Enterococcus faecalis [5]) [µM] | MIC (Enterococcus faecalis [6]) [µM] | MIC (Staphylococcus aureus [7]) [µM] | MIC (Staphylococcus aureus [8]) [µM] | MIC (Staphylococcus aureus [9]) [µM] | MIC (Staphylococcus aureus [10]) [µM] | MIC (Staphylococcus aureus [11]) [µM] |
| --- | --- | --- | --- | --- | --- | --- | --- | --- | --- | --- | --- |
| O=C(NNC(=S)Nc1cccc(Cl)c1)c1ccccc1 | > 100 | > 400 | – | – | – | – | – | – | – | – | – |
| O=C(NNC(=S)Nc1ccc(Cl)cc1)c1ccccc1 | > 100 | > 400 | – | – | – | – | – | – | – | – | – |
| O=C(NNC(=S)Nc1ccccc1Cl)c1ccccc1 | > 100 | > 400 | – | – | – | – | – | – | – | – | – |
| O=C(NNC(=S)Nc1ccccc1)c1ccccc1O | > 100 | > 400 | 800 | > 100 | > 100 | > 100 | > 100 | > 100 | > 100 | > 100 | > 100 |
| O=C(NNC(=S)Nc1ccc(Cl)c(Cl)c1)c1ccc(O)cc1 | > 100 | > 400 | – | – | – | – | – | – | – | – | – |
| O=C(NNC(=S)Nc1ccc(Cl)c(Cl)c1)c1cccc(O)c1 | > 100 | > 400 | – | – | – | – | – | – | – | – | – |
| O=c1c2ccccc2ncn1NC(=S)Nc1ccccc1 | > 100 | > 400 | – | – | – | – | – | – | – | – | – |
| O=C(NNC(=S)Nc1cccc2ccccc12)c1ccccc1O | > 100 | > 400 | 520 | > 100 | > 100 | > 100 | > 100 | > 100 | > 100 | > 100 | > 100 |
| O=C(NNC(=S)Nc1cccc(Cl)c1)c1ccccc1O | 100 (≈ 32.2 µg/mL) | 400 (≈ 129 µg/mL) | 630 | > 100 | > 100 | > 100 | > 100 | > 100 | 100 (≈ 32.2 µg/mL) | > 100 | > 100 |
| O=C(NNC(=O)c1ccccc1)Nc1ccc(Cl)c(Cl)c1 | > 100 | > 100 | – | – | – | – | – | – | – | – | – |
| O=C(NNC(=S)Nc1ccccc1F)c1ccccc1O | > 100 | 200 (≈ 61.1 µg/mL) | 970 | > 100 | > 100 | > 100 | > 100 | > 100 | > 100 | > 100 | > 100 |
| O=C(NNC(=O)c1ccccc1O)Nc1ccc(Cl)c(Cl)c1 | > 100 | > 100 | – | – | – | – | – | – | – | – | – |
| N#Cc1ccc(NC(=S)NNC(=O)c2ccccc2O)cc1 | > 100 | 100 (≈ 31.2 µg/mL) | 510 | > 100 | > 100 | > 100 | > 100 | > 100 | > 100 | > 100 | > 100 |
| O=C(NNC(=S)Nc1ccccc1F)c1ccccc1 | > 100 | > 400 | – | – | – | – | – | – | – | – | – |
| O=C(NNC(=S)Nc1ccccc1Cl)c1ccccc1O | > 100 | 400 (≈ 129 µg/mL) | 790 | > 100 | > 100 | > 100 | > 100 | 100 (≈ 32.2 µg/mL) | 100 (≈ 32.2 µg/mL) | 100 (≈ 32.2 µg/mL) | 100 (≈ 32.2 µg/mL) |
| O=C(NNC(=S)Nc1ccc(F)cc1)c1ccccc1 | > 100 | > 400 | – | – | – | – | – | – | – | – | – |

| SMILES | MIC (Staphylococcus aureus [1]) [µM] | MIC (Enterococcus faecalis [2]) [µM] | IC50 [3] [nM] | MIC (Enterococcus faecalis [4]) [µM] | MIC (Enterococcus faecalis [5]) [µM] | MIC (Enterococcus faecalis [6]) [µM] | MIC (Staphylococcus aureus [7]) [µM] | MIC (Staphylococcus aureus [8]) [µM] | MIC (Staphylococcus aureus [9]) [µM] | MIC (Staphylococcus aureus [10]) [µM] | MIC (Staphylococcus aureus [11]) [µM] |
| --- | --- | --- | --- | --- | --- | --- | --- | --- | --- | --- | --- |
| CCCCCNC(=S)NNC(=O)c1ccccc1O | > 100 | > 400 | 930 | > 100 | > 100 | > 100 | > 100 | > 100 | > 100 | > 100 | > 100 |
| O=C(NNC(=S)Nc1cccc(F)c1)c1ccccc1O | > 100 | 200 (≈ 61.1 µg/mL) | 100 | > 100 | > 100 | > 100 | > 100 | > 100 | > 100 | > 100 | > 100 |
| O=C(NNC(=S)Nc1cccc(F)c1)c1ccccc1 | > 100 | > 400 | – | – | – | – | – | – | – | – | – |
| O=C(NNC(=S)Nc1ccc([N+](=O)[O-])cc1)c1ccc(O)cc1 | > 100 | > 400 | – | – | – | – | – | – | – | – | – |
| COc1ccc(NC(=S)NNC(=O)c2ccccc2O)cc1 | > 100 | > 400 | 710 | > 100 | > 100 | > 100 | > 100 | > 100 | > 100 | > 100 | > 100 |
| O=C(NNC(=S)Nc1ccc(F)cc1)c1ccccc1O | > 100 | 200 (≈ 61.1 µg/mL) | 840 | > 100 | > 100 | > 100 | > 100 | > 100 | > 100 | > 100 | > 100 |
| O=C(NNC(=S)NCCCN1CCOCC1)c1ccccc1O | > 100 | > 400 | – | > 100 | > 100 | > 100 | > 100 | > 100 | > 100 | > 100 | > 100 |
| COc1ccccc1NC(=S)NNC(=O)c1ccccc1O | > 100 | > 400 | 550 | > 100 | > 100 | > 100 | > 100 | > 100 | > 100 | > 100 | > 100 |
| O=C(NNC(=S)Nc1ccc(Cl)cc1Cl)c1ccccc1O | 50 (≈ 17.8 µg/mL) | 50 (≈ 17.8 µg/mL) | 580 | 25 (≈ 8.91 µg/mL) | 50 (≈ 17.8 µg/mL) | 25 (≈ 8.91 µg/mL) | 50 (≈ 17.8 µg/mL) | 25 (≈ 8.91 µg/mL) | 50 (≈ 17.8 µg/mL) | 50 (≈ 17.8 µg/mL) | 25 (≈ 8.91 µg/mL) |
| O=C(NNC(=S)Nc1ccc(Cl)c(Cl)c1)c1ccccc1 | > 100 | > 100 | – | – | – | – | – | – | – | – | – |
| O=C(NNC(=S)Nc1cccnc1)c1ccccc1O | 50 (≈ 14.4 µg/mL) | 50 (≈ 14.4 µg/mL) | – | > 100 | > 100 | > 100 | > 100 | > 100 | > 100 | > 100 | > 100 |
| O=C(NNC(=S)Nc1cccc(I)c1)c1ccccc1O | > 100 | > 400 | 730 | > 100 | > 100 | > 100 | > 100 | > 100 | > 100 | > 100 | > 100 |
| O=C(NNC(=S)Nc1ccc(Cl)cc1)c1ccccc1O | > 100 | > 400 | 830 | > 100 | > 100 | > 100 | > 100 | > 100 | > 100 | > 100 | > 100 |
| O=C(O)c1cn(C2CC2)c2cc(N3CCNCC3)c(F)cc2c1=O [CIPROFLOXACIN] | – | – | – | – | – | – | – | – | – | 770 (≈ 255 µg/mL) | – |
| CC(=O)NC[C@H]1CN(c2ccc(N3CCOCC3)c(F)c2)C(=O)O1 [LINEZOLID] | – | – | – | – | – | – | 3 (≈ 1.01 µg/mL) | 190 (≈ 64.1 µg/mL) | – | – | – |
| CN[C@H](CC(C)C)C(=O)N[C@H]1C(=O)N[C@@H](CC(N)=O)C(=O)N[C@H]2C(=O)N[C@H]3C(=O)N[C@H](C(=O)N[C@H](C(=O)O)c4cc(O)cc(O)c4-c4cc3ccc4O)[C@H](O)c3ccc(c(Cl)c3)Oc3cc2cc(c3O[C@@H]2O[C@H](CO)[C@@H](O)[C@H](O)[C@H]2O[C@H]2C[C@](C)(N)[C@H](O)[C@H](C)O2)Oc2ccc(cc2Cl)[C@H]1O [VANCOMYCIN] | – | – | – | 700 (≈ 1010 µg/mL) | 350 (≈ 507 µg/mL) | – | 5 (≈ 7.25 µg/mL) | 0.7 (≈ 1.01 µg/mL) | – | – | > 175 |
